Measurements reported in patent US6380179B1, “Method for treatment of alopecia” (Sankyo Company, Limited, priority 1997, dated 2002).

Assays:
[1] = test system: monkey model animal of male pattern baldness; settings: cited from earlier work
[2] = test system: dihydrotestosterone (DHT) and testosterone (T) levels in blood; assay: Effects for lowering the dihydrotestosterone level in human blood after oral administration; assay type: in vivo; settings: n=4 to 6
Experimental: Effects for Lowering the Dihydrosterone Level in Human Blood
To a human body, 1 to 10 mg/body of Compound I or 5 mg/body of Finasteride was orally administered and the dihydrotestosterone (DHT) and testosterone (T) levels in blood were measured. Their ratios (DHT/T) before administration (pre) and after passage of time (10 and 18 hours) were calculated, from which (DHT/T)/(DHT/T)pre was calculated.

[3] = test system: human baldness; settings: clinical test; cited from earlier work
[4] = target: T1, recombinant type I human 5α-reductase (Homo sapiens, UniProt P18405); assay: Inhibitory activity against recombinant type I human 5α-reductase (conversion of 14C testosterone to 14C 5α-dihydrotestosterone); assay type: biochemical; settings: recombinant human type I 5α-reductase, pH 7.5, 1 μM 14C testosterone, 37° C. 15 minutes; Table 1
T1 construct: In order to clone the entirely translated regions of type I and type II human 5α-reductases by a polymerase chain reaction (PCR) method; made in house; host or cells: COS-1 cells transiently transfected with pME18sH5R1; resuspended 10000×g pellet of the homogenate used as the enzyme
T1 sequence (P18405 1-259): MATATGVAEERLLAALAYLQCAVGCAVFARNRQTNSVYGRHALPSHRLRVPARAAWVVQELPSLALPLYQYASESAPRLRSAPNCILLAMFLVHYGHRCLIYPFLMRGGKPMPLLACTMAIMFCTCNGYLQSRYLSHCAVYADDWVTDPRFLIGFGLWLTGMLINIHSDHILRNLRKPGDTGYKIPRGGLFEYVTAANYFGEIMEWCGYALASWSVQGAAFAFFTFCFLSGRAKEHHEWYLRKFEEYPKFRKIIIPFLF
Experimental: Method for Determination of the Inhibitory Activity Against Each of Type I and Type II Human 5α-reductases
(1) Preparation of recombinant human type I and type II 5α-reductases
In order to clone the entirely translated regions of type I and type II human 5α-reductases by a polymerase chain reaction (PCR) method, primers of Sequence ID. Nos. 1,2,3 and 4 were prepared using an Oligo 1000 DNA synthesizer (product of BECKMAN Co., Ltd.) on the basis of the base sequences of type I and type II human 5α-reductases described in published reports (Stefan. A, et al., Proc. Natl. Acad. Sci. USA, 87, 3640-3644(1990). Stefan. A, et al. Nature, 354. 159-161(1991)).
PCR was carried out using 1 μl of cDNA. 5 μl of a PCR buffer attached. 1 μl of a 10 mM dNTP mixed solution. 1 μl each of the above-described sense and antisense-primers at a concentration of 20 μl M. 1 μl of […] of TaKaRa Taq polymerase and 40 μl of distilled water to give a reaction volume of 50 μl. For PCR, a cycle of the reactions at 94° C. for 20 seconds, at 55° C. for 1 minute and at 72° C. for 1 minute was repeated 25 times, followed by storing at 4° C. […]
The protein content was measured by the Bradford method (Bio-Rad Protein Assay of Biorad) by using bovine gamma-globulin (bovine cohn fraction II, product of Sigma) as a standard product. […]

SMILES	effectiveness on baldness [1]	(DHT/T)/(DHT/T)pre ([2]; 5 mg/body, after 10 hours)	(DHT/T)/(DHT/T)pre ([2]; 5 mg/body, after 18 hours)	effects on human baldness [3]	IC50 [4] [µM]	(DHT/T)/(DHT/T)pre ([2]; 1 mg/body, after 10 hours)	(DHT/T)/(DHT/T)pre ([2]; 1 mg/body, after 18 hours)	(DHT/T)/(DHT/T)pre ([2]; 10 mg/body, after 10 hours)	(DHT/T)/(DHT/T)pre ([2]; 10 mg/body, after 18 hours)
CC(C)(C)NC(=O)[C@H]1CC[C@H]2[C@@H]3CC[C@H]4NC(=O)C=C[C@]4(C)[C@H]3CC[C@]12C [Finasteride, reference compound]	effective in the treatment of baldness	0.553	0.461	have been recognized	0.7	–	–	–	–
CC(C)CCCC(C)C1CCC2C3C(C)CC4N(C)C(=O)CCC4(C)C3CCC12C (stereo not shown) [MK386]	not recognized	–	–	–	–	–	–	–	–
COc1ccc(C(C)(C)NC(=O)[C@H]2CC[C@H]3[C@@H]4CC[C@H]5NC(=O)C=C[C@]5(C)[C@H]4CC[C@]23C)cc1 [Compound of Reference Example 1, N-[1-Methyl1-(4-methoxyphenyl)ethyl]-3-oxo4-aza-5α-androsto-1-ene-17β-carboxamide]	–	0.411	0.376	–	0.049	0.518	0.525	0.279	0.284
